Measured values: ChEMBL document CHEMBL4387733, “Design, synthesis and biological evaluation of indane derived GPR40 agoPAMs” (Bioorg Med Chem Lett, 2019)
Converted amounts (≈) assume the structure as drawn. The source made the active and inactive calls. The calls are words filed in the database; no cut-off is given here.

Columns and labels:
[1] = Protein binding in human plasma assessed as unbound fraction level; format: ADME, cell-free
[2] = target: T1, Free fatty acid receptor 1 (Homo sapiens, UniProt O14842); test: Positive allosteric modulation of recombinant human GPR40 expressed in HEK293 cells assessed as increase in [3H]-myo-inositol phosphate accumulation measured after 60 mins in absence of human serum by microbeta counting method relative to control; format: functional, cell-based; parameters: concentration or dose not given beside the values
T1 sequence (O14842 whole entry): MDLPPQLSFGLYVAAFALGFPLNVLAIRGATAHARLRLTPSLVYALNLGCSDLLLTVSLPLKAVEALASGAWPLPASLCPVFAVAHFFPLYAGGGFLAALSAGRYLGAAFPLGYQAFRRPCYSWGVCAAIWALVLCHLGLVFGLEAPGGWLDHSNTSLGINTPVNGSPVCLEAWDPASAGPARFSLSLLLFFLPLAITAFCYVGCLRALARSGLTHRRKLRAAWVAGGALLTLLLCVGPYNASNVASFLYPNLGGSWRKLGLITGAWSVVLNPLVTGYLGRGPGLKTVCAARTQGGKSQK

[3] = target: T1, Free fatty acid receptor 1; test: Positive allosteric modulation of recombinant human GPR40 expressed in HEK293 cells assessed as increase in [3H]-myo-inositol phosphate accumulation measured after 60 mins in presence of 100% human serum by microbeta counting method; format: functional, cell-based
[4] = target: T1, Free fatty acid receptor 1; test: Positive allosteric modulation of recombinant human GPR40 expressed in HEK293 cells assessed as increase in [3H]-myo-inositol phosphate accumulation measured after 60 mins in presence of 100% human serum by microbeta counting method relative to control; format: functional, cell-based
[5] = target: T1, Free fatty acid receptor 1; test: Positive allosteric modulation of recombinant human GPR40 expressed in HEK293 cells assessed as increase in [3H]-myo-inositol phosphate accumulation measured after 60 mins in absence of human serum by microbeta counting method; format: functional, cell-based
[6] = Dose normalized AUC in Wistar Han rat at 2 mg/kg, po; format: ADME, organism-based; conditions: in vivo
[7] = Drug level in Wistar Han rat assessed as unbound fraction at 1 mg/kg, iv or 2 mg/kg, po; format: ADME, organism-based; conditions: in vivo
[8] = Clearance in Wistar Han rat at 1 mg/kg, iv or 2 mg/kg, po; format: ADME, organism-based; conditions: in vivo
[9] = Oral bioavailability in Wistar Han rat at 2 mg/kg; format: ADME, organism-based; conditions: in vivo
[10] = Total drug level in Wistar Han rat plasma at 1 mg/kg, iv or 2 mg/kg, po measured at 3 hrs; format: ADME, organism-based
Rattus norvegicus [11] = test: Hypoglycemic activity in Sprague-Dawley rat assessed as reduction in blood glucose AUC at 3 mg/kg, ip measured after 3 hrs by IPGTT relative to control; format: functional
[12] = Volume of distribution in Wistar Han rat at 1 mg/kg, iv or 2 mg/kg, po; format: ADME, organism-based; conditions: in vivo
[13] = Half-life in Wistar Han rat at 1 mg/kg, iv or 2 mg/kg, po; format: ADME, organism-based; conditions: in vivo
[14] = Unbound drug level in Wistar Han rat plasma at 1 mg/kg, iv or 2 mg/kg, po measured at 3 hrs; format: ADME, organism-based; conditions: in vivo
[15] = Cmax in Wistar Han rat at 1 mg/kg, iv or 2 mg/kg, po; format: ADME, organism-based; conditions: in vivo
[16] = Solubility of the compound in FASSIF; format: physicochemical
Rattus norvegicus [17] = test: Hypoglycemic activity in Sprague-Dawley rat assessed as reduction in blood glucose AUC at 0.3 mg/kg, po pretreated for 1 hr followed by glucose challenge by OGTT relative to control; format: functional
[18] = Stability of the compound in pH 7.4 potassium phosphate buffer at 10 uM measured after 5 hrs; format: physicochemical; conditions: pH 7.4, 5 h
[19] = Drug metabolism in pH 7.4 potassium phosphate buffer assessed as TAK-875 formation at 10 uM measured after 5 hrs
Rattus norvegicus [20] = test: Hypoglycemic activity in Sprague-Dawley rat assessed as reduction in blood glucose AUC at 10 mg/kg, po pretreated for 1 hr followed by glucose challenge by OGTT relative to control; format: functional; parameters: scale not given: the % may be the effect or the level left
[21] = target: T1, Free fatty acid receptor 1; test: Agonist activity at GPR40 (unknown origin) assessed as […] in IP1 accumulation; format: functional

Fu [1] [%] | Activity [2] [%] | EC50 [3] [nM] | fEC50 [3] [nM] | Activity [4] [%] | EC50 [5] [nM] | Compound | further results
0.04 | 448 | 3550 | 3.2 | 372 | 11 | COc1cc(-c2ccc3c(c2)CC[C@H]3Oc2cccc([C@H](C3CC3)[C@H](C)C(=O)O)c2)ccn1 | –
0.03 | 472 | 867 | 0.26 | 446 | 3 | COc1cc(-c2ccc3c(c2)CC[C@H]3Oc2cccc([C@H](C3CC3)[C@H](C)C(=O)O)c2)c(F)cn1 | AUC/dose [6]: 99.9 µM·h; Fu [7]: 0.03%; clearance [8]: 0.6 mL/min/kg; bioavailability [9]: 54%; concentration at 3 h [10]: 1900 nM; inhibition in vivo at 3 mg/kg (Rattus norvegicus [11]): 94%; Vd [12]: 0.18 L/kg; half-life [13]: 3.9 h; Cp(f) [14]: 0.57 nM; Cmax [15]: 10700 nM
– | – | – | – | – | – | COc1ccc(F)c(-c2ccc([C@@H]3CCc4ccc([C@H](C5CC5)[C@H](C)C(=O)O)cc4O3)cc2)c1 | solubility [16]: 125 µM (≈ 57.6 µg/mL)
0.16 | 159 | 4900 | 7.8 | 107 | – | COc1ccc(F)c(-c2cnc3c(c2)CC[C@H]3Oc2cccc([C@H](C3CC3)[C@H](C)C(=O)O)c2)c1 | –
– | 101 | 5450 | 2.3 | 110 | 326 | COc1ccc(F)c(-c2ccc3c(c2C2=CCCC2(C)C)CC[C@H]3Oc2cccc([C@H](C3CC3)[C@H](C)C(=O)O)c2)c1 | –
– | – | – | – | – | – | Cc1cc(OCCCS(C)(=O)=O)cc(C)c1-c1cccc(COc2ccc3c(c2)OC[C@H]3CC(=O)O)c1 | Activity (Rattus norvegicus [17]): Active
– | – | – | – | – | – | Cc1cc(OCCCS(C)(=O)=O)cc(C)c1-c1cccc(COc2ccc3c(c2)OC[C@H]3CC(=O)OC2O[C@H](C(=O)O)[C@@H](O)[C@H](O)[C@H]2O)c1 (some centres undefined) | Stability [18]: Unstable; Drug metabolism [19]: Metabolite detected
– | – | – | – | – | – | O=C1NC(=O)C(C2CCOc3cc(Oc4ccc(C(F)(F)F)cc4Cl)ccc32)S1 (centres undefined) | Activity (Rattus norvegicus [20]): 97%
0.05 | 342 | 245 | 0.08 | 318 | 2 | COc1cc(-c2ccc3c(c2)CC[C@H]3Oc2cccc([C@H](C3CC3)[C@H](C)C(=O)O)c2F)c(F)cn1 | AUC/dose [6]: 36.2 µM·h; Fu [7]: 0.05%; clearance [8]: 2.9 mL/min/kg; bioavailability [9]: > 100%; concentration at 3 h [10]: 600 nM; inhibition in vivo at 3 mg/kg (Rattus norvegicus [11]): 49%; Vd [12]: 0.78 L/kg; half-life [13]: 5.1 h; Cp(f) [14]: 0.3 nM; Cmax [15]: 6300 nM
– | 339 | 5490 | 0.6 | 84 | 60 | COc1ccc(F)c(-c2ccc3c(c2)CC[C@@H]3Oc2cccc([C@H](C3CC3)[C@H](C)C(=O)O)c2)c1 | –
– | 224 | > 10000 | – | – | 155 | COc1ccc(F)c(-c2cc3c(cc2F)[C@H](Oc2cccc([C@H](C4CC4)[C@H](C)C(=O)O)c2)CC3)c1 | –
0.05 | – | > 10000 | – | – | – | COc1ccc(F)c(-c2ccc(COc3cccc([C@@H](CC(=O)O)C4CC4)c3)cc2)c1 | –
– | 366 | > 10000 | – | – | 151 | COc1ccc(F)c(-c2ccc3c(n2)CC[C@H]3Oc2cccc([C@H](C3CC3)[C@H](C)C(=O)O)c2)c1 | –
– | 352 | 810 | 0.32 | 297 | 3.9 | COc1ccc(F)c(-c2ccc3c(c2F)CC[C@H]3Oc2cccc([C@H](C3CC3)[C@H](C)C(=O)O)c2)c1 | –
– | 377 | > 10000 | – | – | 59 | COc1ccc(F)c(-c2ccc3c(c2)CC[C@H]3Oc2cccc([C@H](C3CC3)[C@@H](C)C(=O)O)c2)c1 | –
0.02 | 395 | 127 | 0.03 | 264 | 3 | COc1ccc(F)c(-c2ccc3c(c2)CC[C@H]3Oc2cccc([C@H](C3CC3)[C@H](C)C(=O)O)c2F)c1 | AUC/dose [6]: 9.3 µM·h; Fu [7]: 0.02%; clearance [8]: 2.8 mL/min/kg; bioavailability [9]: > 100%; concentration at 3 h [10]: 2500 nM; inhibition in vivo at 3 mg/kg (Rattus norvegicus [11]): 10%; Vd [12]: 0.85 L/kg; half-life [13]: 3.1 h; Cp(f) [14]: 0.5 nM; Cmax [15]: 2900 nM
– | 224 | > 10000 | – | – | – | COc1ccc(F)c(-c2cc(F)c3c(c2)CC[C@H]3Oc2cccc([C@@H](CC(=O)O)C3CC3)c2)c1 | –
– | – | – | – | – | – | CC#C[C@@H](CC(=O)O)c1ccc(OCc2cccc(-c3ccc(C(F)(F)F)cc3)c2)cc1 | Activity (Rattus norvegicus [17]): Active
– | 352 | 5950 | 3.7 | 131 | – | COc1ccc(F)c(-c2ccc3c(c2)CC[C@H]3Oc2cccc([C@@H](CC(=O)O)C3CC3)c2)c1 | –
0.13 | 457 | 3320 | 4.3 | 221 | – | COc1ccc(F)c(-c2cc3c(cn2)[C@H](Oc2cccc([C@H](C4CC4)[C@H](C)C(=O)O)c2)CC3)c1 | fold change (FC) [21]: < 100
0.9 | 291 | 7350 | 66 | 138 | 16 | COc1ccc(F)c(-c2ccc3c(c2)OC[C@@H]3Oc2cccc([C@@H](CC(=O)O)C3CC3)c2)c1 | –
